Patent US20080261942A1, “COMBINATIONS OF BILE ACID SEQUESTRANT(S) AND STEROL ABSORPTION INHIBITOR(S) AND TREATMENTS FOR VASCULAR INDICATIONS” (SCHERING CORPORATION, priority 2001, published 2008)

Tested on: free cholesterol absorption
Test: short term hamster model tracking a bolus of gavaged radiolabeled cholesterol
Type: in vivo, Male Golden Syrian hamsters
Excerpt: To follow the movement of lipids across the intestinal wall leading to its subsequent appearance in the lymph, blood and liver, a short term hamster model which tracked a bolus of gavaged radiolabeled lipid was used. Free cholesterol absorption was examined in this hamster model to explore whether the cholesterol absorption inhibitor compound of Formula (XII): […]
Male Golden Syrian hamsters were fed a diet containing 0.5% cholesterol overnight and divided into groups of 5 animals. […] Two hours later, blood and liver samples were collected from each hamster. The blood was centrifuged for 20 minutes at 3000 rpm and the plasma was removed. Aliquots of the plasma and liver were analyzed for [^14C] radioactivity. Radioactive content was determined using a Beckman LSC (liquid […] counter).

[1] = hamsters fed 0.5% cholesterol diet, gavage 1 h before [14C]-cholesterol, samples two hours later, Compound XII 3 mg/kg, cholestyramine 1 g/kg
[2] = hamsters fed 0.5% cholesterol diet, samples two hours after [14C]-cholesterol, Compound XII 3 mg/kg, cholestyramine 1 g/kg
[3] = specified dosage (Compound XII 3 mg/kg, cholestyramine 1 g/kg)

COc1ccc([C@@H]2[C@@H](CCCc3ccccc3)C(=O)N2c2ccc(OC)cc2)cc1 [Compound XII]
Liver [14C]-cholesterol (DPM/gram of liver) [1]: 3755 ± 923 DPM/gram of liver | Plasma [14C]-cholesterol (Decays Per Minute (DPM)/milliter of plasma) [1]: 1438 ± 455 DPM/milliter of plasma | Liver [14C]-cholesterol, change versus Control (in brackets) [2]: −53% | Plasma [14C]-cholesterol, change versus Control (in brackets) [2]: −71% | reduction of liver (hepatic) [14C]-cholesterol levels [3]: 53% | reduction of plasma [14C]-cholesterol levels [3]: 71%
